Test system: Foxp3+ Treg, CD8+ T cells, G-MDSC/neutrophils
Type: in vivo
Conditions: CTX treated vs only VTP
Description: • (i) Bacteriochlorophyll Derivatives—The Bchl derivatives and RGD-conjugates thereof were provided by Steba Biotech (Rehovot, Israel). […] Concentration was verified by spectrophotometric measurement. STL-7012 was provided as dipotassium salt. Working solution was prepared by dissolving STL-7012 K^+ salt in 5% mannitol solution (1 mg/ml). […] WST11 was supplied as a powder and kept in the dark at −20° C. Stock was prepared by dissolving WST11 in DDW containing 5% glucose and 0.67% mannitol, aliquoted and lyophilized. Working solution was reconstituted with DDW and the concentration of solution was confirmed spectrophotometrically. Alternatively, Clinical WST11 (batch: P00611, and 10-130611) was supplied as lyophilized formulation. Material was dissolved in 5% dextrose, aliquoted and stored at −20° C. […] Aliquots were thawed, diluted with saline to a desired concentration and used on the same day at a dose of 75 mg/kg. Cyclophosphamide (CTX, Endoxan®, Baxter Oncology Gmbh, Germany) was purchased from a local pharmacy. A stock solution of 20 mg/ml was prepared by dissolving in 0.9% NaCl, aliquoted and stored at −20° C. Aliquots were thawed, diluted with saline if needed to a desired concentration and used on the same day prepared at indicated doses. • (iii) Murine cell lines—Mammary luciferase (luc)-labeled 4T1 cell line (4T1-Luc) was a kind gift from Dr. Zvi Granot (Faculty of Medicine, The Hebrew University of Jerusalem, Israel); melanoma B16-F10 cell line was obtained from the American Type Culture Collection (ATCC, Manassas, Va.); bladder MB49 cell line was a kind gift from James Allison (MSKCC, New York, USA), and luc-labeled MB49-cell line was established using the murine stem cell virus (MSCV)-puromycin-luc-GFP construct (kindly provided by Dr. Emily Cheng, Human Oncology and Pathogenesis Program, MSKCC). 4T1 and MB49 cells were maintained in DMEM medium and B16-F10 cells in RPMI medium supplemented with 1 mmol/L sodium pyruvate, 10% fetal calf serum (FCS), 250 μg/ml hygromycin, 0.06 mg/ml penicillin and 0.1 mg/ml streptomycin. The cells were grown as monolayer at 37° C. in a humidified atmosphere (5% CO2, 95% air). • (iv) Murine tumor models—Female, Balb/c mice (6-8 week old) were grafted either subcutaneously (s.c.) into the right hind leg or orthotopically with 1×10^6 4T1 cells suspended in 50 or 1000 PBS. […] Whole body imaging of luciferase-transfected tumors and metastases were recorded five minutes following 75 mg Kg^−1 intraperitoneal (i.p.) injection of D-luciferin with respective filter sets. • (vi) PDT treatment protocol: 4T1-Luc cells were grafted in the mammary pad of Balb/c mice. […] Ablation of primary tumors was assessed every 7 days by imaging the tumor's luciferase-mediated bioluminescence signal, using IVIS.

Structure (SMILES): CCC1c2cc3[n-]c(c(CC(=O)OC)c4nc(cc5[n-]c(cc(n2)C1C)c(C(C)=O)c5C)C(C)C4CCC(=O)[O-])c(C(=O)NCCS(=O)(=O)[O-])c3C.[K+].[K+].[Pd+2] (stereo not shown) [WST11, Palladium 3^1-oxo-15-methoxycarbonylmethyl-rhodobacteriochlorin 13^1-(2-sulfoethyl) amide dipotassium salt]
- total cell numbers in draining lymph nodes and spleens after VTP: decrease in cell counts
